Experiments:
Assay type in all cases: cell-based
[1] = system: normal human corneal fibroblasts; assay: Cell proliferation analysis, human corneal stromal cells
Experimental: FIGS. 1A-1C. Effect of ethyl pyruvate on the growth of human corneal stromal cells. Corneal stromal cells in P2 growing in DMEM/F12 with 10% FBS were subcultured into desired number of 35 mm tissue culture dishes. After 24 hrs of incubation, the media were replaced with DMEM/F12 medium containing 1% FBS with or without EP (FIG. 1A) or with the same medium containing TGF-β1 or b-FGF/HS with or without EP (FIG. 1B and FIG. 1C, respectively). The cells in several marked regions were counted every 24 hours as described in Methods. The data points are average (±SE) from two separate experiments.
(§1) To study the effect of EP on cell proliferation, normal human corneal fibroblasts growing in DMEM/F12 with 10% FBS were subcultured into the desired number of 35 mm tissue culture dishes at a density of 5×10^4 cells/per dish. […] Several regions were marked on the bottom of the dishes and cells in marked regions were counted at 24 hr intervals for five days. Phase contrast digital micrographs of the cells in the marked fields were captured and the cells in the images were counted using MetaMorph® imaging software. The rate of proliferation was evaluated by determining the number of cells at specific time points after treatment/number of cells at the start of the treatment. […]

[2] = system: human corneal stromal cells; assay: Toxicity to cultured human corneal stromal cells; details: possibly due to low pH of the culture medium
Experimental: Higher than 20 mM concentrations were toxic to the cells, possibly due to the low pH of the culture medium resulting from high EP concentrations.

[3] = system: rabbit corneal stromal cells; assay: Cell proliferation analysis, rabbit corneal stromal cells; details: 1% FBS, with TGF-β1 or b-FGF/HS
Experimental: FIG. 2. Effect of ethyl pyruvate on the growth of rabbit corneal stromal cells. Corneal stromal cells in P2 growing in DMEM/F12 with 10% FBS were subcultured into desired number of 35 mm tissue culture dishes. After 24 hrs of incubation, the media were replaced with DMEM/F12 medium containing 1% FBS without EP (labeled “Control), with EP (labeled “Control+EP”); with the same medium containing TGF-β1 without EP (labeled “TGF-β1”) or with EP (labeled “TGF-β1+EP”); or with the same medium containing b-FGF/HS without EP (labeled “FGF/HS”) or with EP (labeled “FGF/HS+EP”). The cells in several marked regions were counted every 24 hours as described in Methods. […]
as §1

[4] = system: type III collagen, tenascin and fibronectin; assay: Western blot of TGF-β1 activated rabbit corneal keratocytes: type III collagen, tenascin, fibronectin; details: TGF-β1 (10 ng/ml)+1% FBS, two days, compared to controls with no treatment
Experimental: FIGS. 19A and 19B. Western blot analyses: Rabbit corneal keratocytes were isolated and cultured in serum-free DMEM/F12 into 60 mm tissue culture dishes. After 24 hrs of incubation, the media were replaced with DMEM/F12 medium containing TGF-β1(10 ng/ml)+1% FBS without (control) or with EP or EP-derivatives for two days. The cells were extracted in RIPA buffer and the extracts containing 5 μg of total proteins were loaded per lane for Western blot analysis.
Keratocytes or fibroblasts grown under different culture conditions were extracted in RIPA buffer (9.1 mM dibasic sodium phosphate, 1.7 mM monobasic sodium phosphate, 150 mM NaCl, pH, 7.4, 1% Nonidet P-40, 0.5% sodium deoxycholate, 0.1% SDS, 0.03 TIU/mL aprotinin, 1 mM sodium orthovanadate, and 100 μg/mL phenylmethylsulfonyl fluoride (PMSF)). Aliquots of cell extracts containing 50 or 100 μg protein were subjected to SDS-PAGE. Protein bands on SDS-PAGE were electrophoretically transferred to IMMOBILON-P™ membrane (Millipore Corp., Bedford, Mass.), stained with 0.1% Coomassie blue 250 in 40% methanol/1% acetic acid for 1 minute, destained one to three times with 50% methanol/1% acetic acid, scanned for densitometric comparisons of relative concentrations of proteins per lane, destained with methanol, and subjected to Western blot analysis. Immunoreactive bands were detected using chemiluminescence Western chemiluminescence reagents.
As described in Example 1, corneal stromal cells were isolated from rabbit corneas and cultured using the same procedures. The keratocytes in serum free media were treated with b-FGF (40 ng/ml)+HS (5 μg/ml) with or without 15 mM EP or 1, 2.5 or 5 mM following EP derivatives: 2-oxopropionic acid 3-methoxyphenyl ester, 2-oxopropionic acid 2-ethoxyethyl ester, 2-oxopropionic acid 2-chloroethyl ester, 2-oxopropionic acid isopropyl ester, 2-oxopropionic acid butyl ester, 2-oxopropionic acid p-tolyl ester, 2-oxopropionic acid tert-butyl ester. […] The relative levels of the expression of specific proteins were analyzed by Western blot analyses of the cell lysates as described supra.

CCOC(=O)C(C)=O [ethyl pyruvate]
cell number ([1]; 1% FBS with or without TGF-β1 or b-FGF/HS, 10 mM and 15 mM EP, counted every 24 hours): no significant increases in cell number
proliferation of human corneal fibroblasts and myofibroblasts ([1]; 10-20 mM in the medium): inhibited proliferation
concentrations toxic to the cells [2]: Higher than 20 mM
proliferation of rabbit stromal cells [3]: inhibited proliferation
levels of type III collagen, tenascin and fibronectin (Western blot) [4]: reduced levels
